Data as given in PMC7235904, “Is Blood a Good Indicator for Detecting Antimicrobials in Meat? Evidence for the Development of In Vivo Surveillance Methods” (Antibiotics, 2020).
Like-named read-outs stand apart in the source and are kept apart here. Marks after values point to notes of the source that are not given here.

Experiment: Antimicrobial residue concentration and depletion in muscle of treated pigs within the withdrawal period (LC-MS/MS or HPLC-FLD)
Format: in vivo
Settings: for concentration at 2 day of withdrawal period: withdrawal period Day 2, pig; for concentration at 3 day of withdrawal period: withdrawal period Day 3, pig
Text: To obtain samples containing antimicrobial compounds administered in vivo, 93 piglets (62 female, 31 male) with an average weight of 43.00 ± 12.79 kg were provided at treatment onset. These piglets were untreated animals that remained on the premises of the Faculty of Veterinary Sciences at the University of Zaragoza (Zaragoza, Spain) 40 days before administration of the compounds. Both during the acclimatization and withdrawal periods, animals were fed ad libitum with a special mixed feed that was free of antibiotics ([…], Spain), and water was provided from a separated, controlled water circuit. Piglets were raised in separate pens depending on the antibiotic administrated. After administration, animals were slaughtered at preset intervals within the withdrawal period in order to obtain samples containing different antimicrobial concentrations above and below the MRLs for muscle. Figure S1 indicates the slaughter days and the withdrawal periods set by the manufacturer for each antimicrobial compound administered. Between one and three piglets were slaughtered on the same day post-administration. The day of slaughter was calculated from the first day after the last antimicrobial treatment dose. […] Apart from samples containing antimicrobial compounds administered in vivo, and as a part of the sample bank, 15 of the 93 piglets were slaughtered after the acclimatization period and before treatment onset. Animals were stunned and slaughtered following the guidelines established by European Council Regulation (EC) No. 1099/2009 [39] regarding the protection of animals at the time of slaughter or killing. A penetrative captive bolt gun was used to stun the pigs, positioning it firmly against the skin, in the middle of the forehead, 2 cm above the line of the eyes, aiming towards the tail. This was followed by complete exsanguination carried out by incision in the jugular furrow at the base of the neck to sever all the major blood vessels arising from the heart. The samples obtained from them were used as blank samples for analysis. […] Samples were immediately frozen at -20 °C until analysis. For HPLC-FLD analyses, matrix solid phase dispersion (MSPD) was used. A total of 1.00 ± 0.01 g of tissue was weighed. Internal quality control samples were spiked at this point. […] It was introduced into a 25 mL reservoir and compacted. Clean-up was made with 8 mL of hexane, and quinolones were eluted with 15 mL acetonitrile/methanol (1:1) acidified with acetic acid 1%. […] The extraction procedure for LC-MS/MS determination was based on Chico et al.. […] All samples were spiked with IS at this point, and calibrants and internal quality control samples were prepared by spiking the corresponding amount of standard working solution. A total of 200 μL of 0.1 M EDTA was added, followed by 10 mL of 70% methanol, and samples were vortexed for 30 s, swung for 15 min, and finally centrifuged at 4500 rcf for 10 min at a temperature below 10 °C (Heraeus Multifuge X3 FR, Heraeus, Hanau, Germany). Then, 500 μL of supernatant was collected and diluted by adding 1500 μL of water. Extracts were filtered through 0.2 μm pore filters directly into LC-MS/MS vials. […] Mobile phase consisted of eluent A: phosphoric acid with trimethylamine buffer (pH = 3), and eluent B: acetonitrile, in isocratic mode (21:79) with a flow rate of 1 mL/min. Injected volume was 50 μL. […] The same mobile phase and gradient conditions as in SCIEX instruments were applied. Injected volume was 10 μL. Two ESI+ MRM transitions were monitored for each compound (Table S5). […] Results were represented as the mean ± standard deviation using the PRISM program (GraphPad Software, Inc., San Diego, USA). The rates of elimination (λz) of antibiotics from muscle and blood were determined by regression analysis. […]

[1] = forequarter muscle, intramuscular, read-out: Concentration in Forequarters
[2] = hindquarter muscle, intramuscular, read-out: Concentration in Hindquarters
[3] = loin muscle, intramuscular, read-out: Concentration in Loins
[4] = over the sample bank of treated piglets

COc1ccc(NS(=O)(=O)c2ccc(N)cc2)nn1 [Sulfamethoxypyridazine, sulfamethoxypyridazine]
half-life (both sexes, intramuscular, pig muscle, T1/2=Ln(2)/λz, read-out: T1/2 half-life of elimination (MUSCLE) (converted)): 13.2 h | concentration at 2 day of withdrawal period [1]: 311 ± 22.6 ng/g | concentration at 3 day of withdrawal period [1]: 43 ng/g | concentration at 2 day of withdrawal period [2]: 351 ± 20.1 ng/g | concentration at 3 day of withdrawal period [2]: 40.5 ± 0.71 ng/g | concentration at 2 day of withdrawal period [3]: 349 ± 16.5 ng/g | concentration at 3 day of withdrawal period [3]: 49.5 ± 0.71 ng/g | Maximum concentration value in Muscle [4]: 1179.67 ± 41.88 µg/kg | Minimum concentration value in Muscle [4]: 14.00 ± 1.41 µg/kg | Slope (MUSCLE) (pig muscle, regression of concentration over the withdrawal period, deep intramuscular treatment): −0.5494 ± 0.0237 ^a
